How the values were obtained:
[1] = system: Dengue 1 virus MY97-10245; test: High-content imaging cell-based flavivirus immunodetection (HCl-CFI) assay, Dengue 1; conditions: Dengue virus, A549, 48 h, read-out: Dengue 1 virus MY97-10245 in A549 using HCl [Inhibitor/IC50] Qualified AC50
[2] = system: Dengue 2 virus MY97-10340; test: High-content imaging cell-based flavivirus immunodetection (HCl-CFI) assay, Dengue 2; conditions: Dengue virus, A549, 48 h, read-out: Dengue 2 virus MY97-10340 in A549 using HCl [Inhibitor/IC50] Qualified AC50, A549 cells, MOI 0.3, 48 h, viral E protein expression
Procedure: High-Content Imaging Cell-Based Flavivirus Immunodetection (HCl-CFI) Assay
A549 cells (7×10^3 cells per well) in a 384-well plate were infected with the DENV-2 (MY97-10340) strain at an MOI of 0.3. The cells were then treated with 3-fold, 10-point serial dilutions of test compound. After 48 h, the cells were fixed with paraformadehyde, and the viral E protein detected with 4G2 antibody labeled with Dylight™ 488 (GenScript). Cell nuclei were stained with Draq5 (Pierce/Thermo), and images were taken on the Opera imaging system (Perkin Elmer). A dose-response curve was plotted to calculate the effective concentration of compound needed to reduce expression of E protein by 50% (EC50) using GraphPad Prism.
The resulted EC50 values are summarized in Table 1 below: ±≥1 μM; 1 μM>++≥0.1 μM; 0.1 μm>+++

[3] = system: Dengue 3 virus MY05-34640-WT-C6/36; test: High-content imaging cell-based flavivirus immunodetection (HCl-CFI) assay, Dengue 3; conditions: Dengue virus, A549, 48 h, read-out: Dengue 3 virus MY05-34640-WT-C6/36 in A549 using HCl [Inhibitor/IC50] Qualified AC50
[4] = system: Dengue 4 virus MY01-22713; test: High-content imaging cell-based flavivirus immunodetection (HCl-CFI) assay, Dengue 4; conditions: Dengue virus, A549, 48 h, read-out: Dengue 4 virus MY01-22713 in A549 using HCl [Inhibitor/IC50] Qualified AC50, A549 cells, 48 h, viral E protein expression

Compound | EC50 [1] | EC50 [2] | EC50 [3] | EC50 [4]
N#Cc1c(NC(=O)Cc2ccc(S(N)(=O)=O)c(F)c2)sc2c1CN(Cc1cccc(F)c1)CC2 [Example 43, N-(3-cyano-5-(3-fluorobenzyl)-4,5,6,7-tetrahydrothieno[3,2-c]pyridin-2-yl)-2-(3-fluoro-4-sulfamoylphenyl)acetamide] | 0.1 to 1 µM | < 0.1 µM | < 0.1 µM | < 0.1 µM
COc1cc(CC(=O)Nc2sc3c(c2C#N)C(C)(C)N(Cc2ccccc2)CC3)ccc1S(N)(=O)=O [Example 49, N-(5-benzyl-3-cyano-4,4-dimethyl-4,5,6,7-tetrahydrothieno[3,2-c]pyridin-2-yl)-2-(3-methoxy-4-sulfamoylphenyl)acetamide] | > 1 µM | 0.1 to 1 µM | 0.1 to 1 µM | > 1 µM
CCOc1cc(CC(=O)Nc2sc3c(c2C#N)CN(Cc2cccc(F)c2)CC3)ccc1S(N)(=O)=O [Example 21, N-(3-cyano-5-(3-fluorobenzyl)-4,5,6,7-tetrahydrothieno[3,2-c]pyridin-2-yl)-2-(3-ethoxy-4-sulfamoylphenyl)acetamide] | < 0.1 µM | < 0.1 µM | < 0.1 µM | < 0.1 µM
CC1Cc2sc(NC(=O)Cc3ccc(S(N)(=O)=O)cc3)c(C#N)c2CN1Cc1cc(F)cc(F)c1 (stereo not shown) [Example 85, N-(3-cyano-5-(3,5-difluorobenzyl)-6-methyl-4,5,6,7-tetrahydrothieno[3,2-c]pyridin-2-yl)-2-(4-sulfamoylphenyl)acetamide] | 0.1 to 1 µM | < 0.1 µM | < 0.1 µM | < 0.1 µM
CC(C1CCCCC1)N1CCc2sc(NC(=O)Cc3ccc(S(N)(=O)=O)cc3)c(C#N)c2C1 (stereo not shown) [Example 3, N-(3-cyano-5-(1-cyclohexylethyl)-4,5,6,7-tetrahydrothieno[3,2-c]pyridin-2-yl)-2-(4-sulfamoylphenyl)acetamide] | 0.1 to 1 µM | < 0.1 µM | < 0.1 µM | < 0.1 µM
CC1Cc2sc(NC(=O)Cc3ccc(S(N)(=O)=O)cc3)c(C#N)c2CN1C(C)c1ccccc1 (single isomer, unassigned) [Example 54, N-(3-cyano-6-methyl-5-(1-phenylethyl)-4,5,6,7-tetrahydrothieno[3,2-c]pyridin-2-yl)-2-(4-sulfamoylphenyl)acetamide] | 0.1 to 1 µM | < 0.1 µM | < 0.1 µM | < 0.1 µM
N#Cc1c(NC(=O)Cc2ccc(S(N)(=O)=O)cc2)sc2c1CCN(Cc1c(Cl)cccc1Cl)C2 [Example 112, N-(3-cyano-6-(2,6-dichlorobenzyl)-4,5,6,7-tetrahydrothieno[2,3-c]pyridin-2-yl)-2-(4-sulfamoylphenyl)acetamide] | > 1 µM | 0.1 to 1 µM | 0.1 to 1 µM | < 0.1 µM
N#Cc1c(NC(=O)Cc2ccc(S(=O)(=O)C(F)F)cc2)sc2c1CN(Cc1cccc(F)c1)CC2 [Example 45, N-(3-cyano-5-(3-fluorobenzyl)-4,5,6,7-tetrahydrothieno[3,2-c]pyridin-2-yl)-2-(4-((difluoromethyl)sulfonyl)phenyl)acetamide] | > 1 µM | > 1 µM | 0.1 to 1 µM | 0.1 to 1 µM
Cc1cc(C)cc(CN2CCc3c(sc(NC(=O)Cc4ccc(S(N)(=O)=O)cc4)c3C#N)C2)c1 [Example 110, N-(3-cyano-6-(3,5-dimethylbenzyl)-4,5,6,7-tetrahydrothieno[2,3-c]pyridin-2-yl)-2-(4-sulfamoylphenyl)acetamide] | 0.1 to 1 µM | < 0.1 µM | < 0.1 µM | < 0.1 µM
N#Cc1c(NC(=O)Cc2ccc(S(N)(=O)=O)cc2)sc2c1CCN(CC1CCCCC1)CC2 [Example 125, N-(3-cyano-6-(cyclohexylmethyl)-5,6,7,8-tetrahydro-4H-thieno[2,3-d]azepin-2-yl)-2-(4-sulfamoylphenyl)acetamide] | > 1 µM | 0.1 to 1 µM | 0.1 to 1 µM | 0.1 to 1 µM
CC1Cc2sc(NC(=O)Cc3ccc(S(=O)(=O)NCC4CC(F)(F)C4)cc3)c(C#N)c2CN1CC1CC(F)(F)C1 (stereo not shown) [Example 57, N-(3-cyano-5-((3,3-difluorocyclobutyl)methyl)-6-methyl-4,5,6,7-tetrahydrothieno[3,2-c]pyridin-2-yl)-2-(4-(N-((3,3-difluorocyclobutyl)methyl)sulfamoyl)phenyl)acetamide] | > 1 µM | 0.1 to 1 µM | > 1 µM | 0.1 to 1 µM
CC1Cc2sc(NC(=O)Cc3ccc(C(N)=O)cc3)c(C#N)c2CN1Cc1cccc(F)c1 (stereo not shown) [Example 58, 4-(2-((3-cyano-5-(3-fluorobenzyl)-6-methyl-4,5,6,7-tetrahydrothieno[3,2-c]pyridin-2-yl)amino)-2-oxoethyl)benzamide] | 0.1 to 1 µM | < 0.1 µM | < 0.1 µM | < 0.1 µM
N#Cc1c(NC(=O)Cc2ccc(S(N)(=O)=O)cc2)sc2c1CCN(CC1CCCCC1)C2 [Example 92, N-(3-cyano-6-(cyclohexylmethyl)-4,5,6,7-tetrahydrothieno[2,3-c]pyridin-2-yl)-2-(4-sulfamoylphenyl) acetamide] | 0.1 to 1 µM | < 0.1 µM | 0.1 to 1 µM | < 0.1 µM
COCCOc1cc(CC(=O)Nc2sc3c(c2C#N)CN(Cc2cccc(F)c2)C(C)C3)ccc1S(N)(=O)=O (stereo not shown) [Example 86, N-(3-cyano-5-(3-fluorobenzyl)-6-methyl-4,5,6,7-tetrahydrothieno[3,2-c]pyridin-2-yl)-2-(3-(2-methoxyethoxy)-4-sulfamoylphenyl)acetamide] | 0.1 to 1 µM | < 0.1 µM | < 0.1 µM | < 0.1 µM
COc1cc(S(N)(=O)=O)ccc1CC(=O)Nc1sc2c(c1C#N)CN(Cc1cccc(F)c1)CC2 [Example 24, N-(3-cyano-5-(3-fluorobenzyl)-4,5,6,7-tetrahydrothieno[3,2-c]pyridin-2-yl)-2-(2-methoxy-4-sulfamoylphenyl)acetamide] | 0.1 to 1 µM | 0.1 to 1 µM | < 0.1 µM | 0.1 to 1 µM
N#Cc1c(NC(=O)Cc2ccc3c(c2)CCS3(=O)=O)sc2c1CN(CC1CCCCC1)CC2 [Example 18, N-(3-cyano-5-(cyclohexylmethyl)-4,5,6,7-tetrahydrothieno[3,2-c]pyridin-2-yl)-2-(1,1-dioxido-2,3-dihydrobenzo[b]thiophen-5-yl)acetamide] | < 0.1 µM | < 0.1 µM | < 0.1 µM | < 0.1 µM
CS(=O)(=O)Cc1ccc(CC(=O)Nc2sc3c(c2C#N)CN(Cc2cccc(F)c2)CC3)cc1 [Example 32, N-(3-cyano-5-(3-fluorobenzyl)-4,5,6,7-tetrahydrothieno[3,2-c]pyridin-2-yl)-2-(4-((methylsulfonyl)methyl)phenyl)acetamide] | 0.1 to 1 µM | 0.1 to 1 µM | < 0.1 µM | < 0.1 µM
Cc1cccc(CN2CCc3c(sc(NC(=O)Cc4ccc(S(C)(=O)=O)cc4)c3C#N)C2)c1 [Example 104, N-(3-cyano-6-(3-methylbenzyl)-4,5,6,7-tetrahydrothieno[2,3-c]pyridin-2-yl)-2-(4-(methylsulfonyl)phenyl)acetamide] | > 1 µM | 0.1 to 1 µM | 0.1 to 1 µM | < 0.1 µM
N#Cc1c(NC(=O)Cc2ccc(S(N)(=O)=O)cc2)sc2c1CCN(Cc1c(F)cccc1Cl)C2 [Example 111, N-(6-(2-chloro-6-fluorobenzyl)-3-cyano-4,5,6,7-tetrahydrothieno[2,3-c]pyridin-2-yl)-2-(4-sulfamoylphenyl)acetamide] | 0.1 to 1 µM | < 0.1 µM | < 0.1 µM | < 0.1 µM
COc1cc(CC(=O)Nc2sc3c(c2C#N)CN(CC2CCCCC2)C(C)(C)C3)ccc1S(N)(=O)=O [Example 82, N-(3-cyano-5-(cyclohexylmethyl)-6,6-dimethyl-4,5,6,7-tetrahydrothieno[3,2-c]pyridin-2-yl)-2-(3-methoxy-4-sulfamoylphenyl)acetamide] | < 0.1 µM | < 0.1 µM | < 0.1 µM | < 0.1 µM
COc1cc(CC(=O)Nc2sc3c(c2C#N)CN(CC2CCCCC2)CC3)ccc1S(N)(=O)=O [Example 7, N-(3-cyano-5-(cyclohexylmethyl)-4,5,6,7-tetrahydrothieno[3,2-c]pyridin-2-yl)-2-(3-methoxy-4-sulfamoylphenyl)acetamide] | < 0.1 µM | < 0.1 µM | < 0.1 µM | < 0.1 µM
CC1Cc2sc(NC(=O)Cc3ccc(S(N)(=O)=O)cc3)c(C#N)c2CN1CC1CCC1 (stereo not shown) [Example 60, N-(3-cyano-5-(cyclobutylmethyl)-6-methyl-4,5,6,7-tetrahydrothieno[3,2-c]pyridin-2-yl)-2-(4-sulfamoylphenyl)acetamide] | > 1 µM | 0.1 to 1 µM | 0.1 to 1 µM | 0.1 to 1 µM

From patent US12012417B2, “N-substituted tetrahydrothienopyridine derivatives and uses thereof” (NOVARTIS AG, priority 2018, dated 2024)
